Data as given in patent publication US8168651B2, “Protein kinase modulators” (Cylene Pharmaceuticals, Inc., priority 2008, dated 2012).

What was measured:
[1] = test system: MiaPaca human pancreatic carcinoma cells; test: Cell-proliferation assay using Alamar Blue dye; assay type: cell-based; settings: MIA PaCa-2, Table 45
Protocol: (§1) A representative cell-proliferation assay protocol using Alamar Blue dye (stored at 4° C., use 20 ul per well) is described hereafter.
(§2) • a. Split and trypsinize cells. • b. Count cells using hemocytometer. • c. Plate 4,000-5,000 cells per well in 100 μl of medium and seed into a 96-well plate according to the following plate layout. Add cell culture medium only to wells B10 to B12. Wells B1 to B9 have cells but no compound added.
(§3) • d. Add 100 μl of 2× drug dilution to each well in a concentration shown in the plate layout above. At the same time, add 100 μl of media into the control wells (wells B10 to B12). Total volume is 200 μl/well. • e. Incubate four (4) days at 37° C., 5% CO2 in a humidified incubator. • f. Add 20 μl Alamar Blue reagent to each well. • g. Incubate for four (4) hours at 37° C., 5% CO2 in a humidified incubator. • h. Record fluorescence at an excitation wavelength of 544 nm and emission wavelength of 590 nm using a microplate reader.
(§4) In the assays, cells are cultured with a test compound for approximately four days, the dye then is added to the cells and fluorescence of […] dye is detected after approximately four hours. Different types of cells can be utilized in the assays (e.g., HCT-116 human colorectal carcinoma cells, PC-3 human prostatic cancer cells and MiaPaca human pancreatic carcinoma cells). Anti-proliferative effects of representative compounds are provided hereafter

recombinant human PIM1 = recombinant human PIM1 (Homo sapiens (Human), UniProt P11309); test: PIM-1 kinase activity in cell-free in vitro assay; assay type: biochemical; settings: Table 45
K-562 = test: Cell proliferation modulatory activity, K-562; assay type: cell-based; settings: Homo sapiens, K562; Table 45; read-out: K-562 IC50
MV-4-11 = test: Cell proliferation modulatory activity, MV-4-11; assay type: cell-based; settings: Homo sapiens, MV4-11; Table 45; read-out: MV-4-11 IC50
PIM2 = PIM2 (Homo sapiens (Human), UniProt Q9P1W9); test: PIM2 IC50; assay type: biochemical; settings: Table 45
phosphoBAD ser 112 = phosphoBAD ser 112 IC50; assay type: cell-based; settings: read-out: phosphoBAD ser 112 IC50; Table 45
MDAMB231 [2] = test: MDAMB231 IC50; assay type: cell-based; settings: Homo sapiens, MDA-MB-231; Table 45
MDAMB231 [3] = test: Cell-proliferation assay using Alamar Blue dye; assay type: cell-based; settings: Homo sapiens, MDA-MB-231
Protocol: as §1
96-Well Plate Setup and Compound Treatment
as §2, §3, §4

recombinant human PIM1, sequence (P11309 whole entry): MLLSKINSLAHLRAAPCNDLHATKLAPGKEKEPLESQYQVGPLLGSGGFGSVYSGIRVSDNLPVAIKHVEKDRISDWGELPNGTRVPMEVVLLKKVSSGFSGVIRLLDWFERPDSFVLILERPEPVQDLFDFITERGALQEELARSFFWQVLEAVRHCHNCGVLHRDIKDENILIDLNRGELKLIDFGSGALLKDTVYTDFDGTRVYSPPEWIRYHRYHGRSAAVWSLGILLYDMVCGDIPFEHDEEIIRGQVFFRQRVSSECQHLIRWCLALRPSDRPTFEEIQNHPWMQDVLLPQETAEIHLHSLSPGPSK
PIM2, sequence (Q9P1W9 whole entry): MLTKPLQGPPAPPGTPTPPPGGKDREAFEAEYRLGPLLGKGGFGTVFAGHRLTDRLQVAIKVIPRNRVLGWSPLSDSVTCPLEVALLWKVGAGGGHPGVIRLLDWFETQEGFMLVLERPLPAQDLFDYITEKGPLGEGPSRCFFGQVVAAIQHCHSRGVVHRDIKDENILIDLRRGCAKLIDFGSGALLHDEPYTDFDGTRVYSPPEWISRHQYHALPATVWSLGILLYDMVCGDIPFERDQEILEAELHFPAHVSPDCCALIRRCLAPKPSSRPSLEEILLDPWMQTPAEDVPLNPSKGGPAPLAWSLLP

IC50 [1] [nM] | IC50 (recombinant human PIM1) [nM] | IC50 (K-562) [nM] | IC50 (MV-4-11) [nM] | IC50 (PIM2) [nM] | IC50 (phosphoBAD ser 112) [nM] | IC50 (MDAMB231 [2]) [nM] | IC50 (MDAMB231 [3]) [µM] | Structure (SMILES)
< 1000 | < 100 | < 5000 | < 100 | < 100 | < 1000 | < 1000 |  | Fc1ccc(Cl)cc1Nc1nc2c(-c3nnc[nH]3)cccc2c2cnccc12
< 5000 | < 100 | < 5000 | < 100 | < 100 | < 100 | < 5000 |  | Fc1ccc(Nc2nc3c(-c4nc[nH]n4)cccc3c3cnccc23)c(F)c1
< 1000 | < 100 | < 500 | < 100 | < 100 | < 100 | < 5000 |  | Fc1cccc(F)c1Nc1nc2c(-c3nnc[nH]3)cccc2c2cnccc12
< 1000 | < 100 | < 5000 | < 100 | < 1000 | < 100 | > 10000 |  | c1ccc(Nc2nc3c(-c4nnc[nH]4)cccc3c3cnccc23)cc1
< 1000 | < 100 | < 5000 | < 100 | < 500 | < 100 | > 10000 |  | CCOc1ccc(Nc2nc3c(-c4nnc[nH]4)cccc3c3cnccc23)cc1
< 5000 | < 100 | > 10000 | < 500 | < 500 | < 500 | < 5000 |  | Fc1ccc(Nc2nc3c(-c4nnc[nH]4)cccc3c3cnccc23)cc1
< 1000 | < 100 | < 100 | < 100 | < 100 | < 100 | < 1000 |  | c1cc(-c2nc[nH]n2)c2nc(NC3CC3)c3ccncc3c2c1
< 500 | < 100 | < 5000 | < 100 | < 100 | < 100 | < 500 |  | C#Cc1cccc(Nc2nc3c(-c4nnc[nH]4)cccc3c3cnccc23)c1
< 1000 | < 100 | < 1000 | < 500 | < 100 | < 1000 | < 5000 |  | Clc1cccc(Nc2nc3c(-c4nnc[nH]4)cccc3c3cnccc23)c1
> 10000 | < 100 | < 500 | < 500 | < 500 | < 5000 | > 10000 |  | Clc1ccc(Nc2nc3c(-c4nc[nH]n4)cccc3c3cnccc23)cc1
< 1000 | < 100 | < 5000 | < 500 | < 1000 | < 100 | < 1000 |  | COc1cccc(Nc2nc3c(-c4nnc[nH]4)cccc3c3cnccc23)c1
> 10000 | < 100 | < 500 | < 500 | < 500 | < 5000 | > 10000 |  | COc1cccc(CNc2nc3c(-c4nc[nH]n4)cccc3c3cnccc23)c1
< 500 | < 100 | > 10000 | < 100 | < 500 | < 5000 | > 10000 |  | Cc1cc(Nc2nc3c(-c4nnc[nH]4)cccc3c3cnccc23)ccc1F
< 5000 | < 100 | > 10000 | < 100 | < 500 | < 5000 | < 1000 |  | Fc1ccc(Nc2nc3c(-c4nc[nH]n4)cccc3c3cnccc23)cc1F
< 5000 | < 100 | < 5000 | < 100 | < 500 | < 1000 | < 5000 |  | Fc1ccc(Nc2nc3c(-c4nnc[nH]4)cccc3c3cnccc23)cc1Cl
< 500 | < 100 | < 5000 | < 100 | > 1100 | < 500 | < 1000 |  | Fc1cc(Cl)cc(Nc2nc3c(-c4nnc[nH]4)cccc3c3cnccc23)c1
> 10000 | < 100 | > 10000 | < 500 | < 500 | < 1000 | < 10000 |  | c1ccc(CCNc2nc3c(-c4nc[nH]n4)cccc3c3cnccc23)cc1
< 1000 | < 100 | < 5000 | < 500 | < 500 | < 1000 | > 10000 |  | Fc1cc(F)cc(Nc2nc3c(-c4nnc[nH]4)cccc3c3cnccc23)c1

IC50 [1] [nM] | IC50 (recombinant human PIM1) [nM] | IC50 (K-562) [nM] | IC50 (MV-4-11) [nM] | IC50 (PIM2) [nM] | IC50 (phosphoBAD ser 112) [nM] | IC50 (MDAMB231 [2]) [nM] | IC50 (MDAMB231 [3]) [µM] | Structure (SMILES)
> 10000 | < 100 | > 10000 | < 500 | < 500 | < 1000 | > 10000 |  | NS(=O)(=O)c1cccc(Nc2nc3c(-c4nc[nH]n4)cccc3c3cnccc23)c1
< 10000 | < 100 | < 5000 | < 500 | < 500 | < 5000 | > 10000 |  | COc1cc(Nc2nc3c(-c4nc[nH]n4)cccc3c3cnccc23)ccc1F
< 1000 | < 100 | < 5000 | < 100 | < 500 | < 100 | > 30000 |  | NC(=O)c1cccc2c1nc(Nc1ccc(F)cc1)c1ccncc12
> 10000 | < 100 | > 10000 | < 500 | < 100 | < 100 | > 10000 |  | FC(F)(F)Oc1ccccc1Nc1nc2c(-c3nnc[nH]3)cccc2c2cnccc12
< 5000 | < 100 | < 10000 | < 100 | < 500 | < 100 | < 10000 |  | COCCNc1nc2c(-c3nc[nH]n3)cccc2c2cnccc12
< 500 | < 500 | > 10000 | < 100 | < 1000 | < 500 | > 10000 |  | OCCNc1nc2c(-c3nnc[nH]3)cccc2c2cnccc12
< 1000 | < 500 | > 10000 | < 100 | < 1000 | < 500 | < 10000 |  | COCCOc1ccc(Nc2nc3c(-c4nnc[nH]4)cccc3c3cnccc23)cc1
< 5000 | < 500 | < 500 | < 500 | < 1000 | < 5000 | > 10000 |  | FC(F)(F)Oc1cccc(Nc2nc3c(-c4nnc[nH]4)cccc3c3cnccc23)c1
 |  |  |  |  |  |  | 11.8 | C#Cc1cccc(Nc2nc3cc(C(=O)O)ccc3c3cnccc23)c1 [drawing 998]
 |  |  |  |  |  |  | 38 | O=C(O)c1ccc2c(c1)nc(NCc1ccccc1)c1ccncc12 [drawing 1000]
 |  |  |  |  |  |  | 8.38 | C#Cc1cccc(Nc2nc3cc(C(=O)O)ccc3c3cnc(NCC4CCCO4)nc23)c1 (centres unmarked) [drawing 1038]
 |  |  |  |  |  |  | 2.63 | C#Cc1cccc(Nc2nc3cc(C(=O)O)ccc3c3cnc(NCC4CC4)nc23)c1 [drawing 1039]
 |  |  |  |  |  |  | 7.23 | COC(=O)c1ccc2c(c1)nc(NC1CC1)c1nc(SCc3ccccc3Cl)ncc12 [drawing 1044]
 |  |  |  |  |  |  | > 50 | O=C(O)c1ccc2c(c1)nc(NC1CC1)c1nc(SCc3ccccc3Cl)ncc12 [drawing 1047]
 |  |  |  |  |  |  | > 50 | CCOc1ncc2c(n1)c(NC1CC1)nc1cc(C(=O)O)ccc12 [drawing 1048]
 |  |  |  |  |  |  | 7.22 | O=C(O)c1ccc2c(c1)nc(NC1CC1)c1nc(NC3CC3)ncc12 [drawing 1049]
 |  |  |  |  |  |  | 23.5 | O=C(O)c1ccc2c(c1)nc(NC1CC1)c1nc(NCc3ccccc3)ncc12 [drawing 1050]
